Experimental data reported in a melting point compilation (Tetko et al.; mined from patent text by program, amines drawn as free bases though some values may be those of a salt).

Compared with `COc1ccc(S(=O)(=O)Nc2cccc3c2Nc2ccc(C#N)cc2CN3)cc1`, `COc1ccc(C(O)c2cccc3c2ccn3S(=O)(=O)c2ccc(C)cc2)cc1` (stereo not given) is lower in melting point: 105 to 107 °C for the first, 90 °C for the second.

Compared with `O=C(NCCCCCCCCCCCCO)OC1CCN(C(=O)Oc2ccc(Oc3ccccc3)cc2)CC1`, `CC(CN1CCN(CCc2ccc(C(=O)O)cc2)CC1)Oc1ccc(C(=O)O)cc1` (stereo not given) is higher in melting point: 75 to 76 °C for the first, 270 to 271 °C for the second.

Compared with `CCOC(=O)CCc1ccc(OCC(=O)N(CC)CC)cc1Oc1ncc(C(F)(F)F)cc1Cl`, `Cc1nc(-c2ccc(C(F)(F)F)cc2)sc1COc1ccc(CC(=O)O)cc1` is higher in melting point: 88.5 to 89 °C for the first, 149 to 150 °C for the second.

First: CCOC(Oc1cc(Cl)cc(Cl)c1)C(=O)O (stereo not given)
Second: CC(C)(C)OC(=O)CCNC(=O)c1ccc2c(Cl)cnc(Cl)c2c1
The melting point of the first is lower: 83.5 to 86.5 °C for the first, 131 to 133 °C for the second.

First: COc1ccc(N2C(=O)C3=C(SCCO3)C2O)nn1 (stereo not given)
Second: COc1cc(NC(=O)NS(=O)(=O)c2ccccc2C)nc(OC)n1
The melting point of the first is lower: 165 °C for the first, 174 to 175 °C for the second.

First: COC1C(O)C(CO)OC1n1ccc(N)nc1=O (stereo not given)
Second: CC(C)C(=O)OC1C(CO)OC(n2cnc3c(N)ncnc32)C1OC(=O)C(C)C (stereo not given)
The melting point of the first is higher: 252 to 254 °C for the first, 207 to 208 °C for the second.

Compared with `CN(C)c1ccc(-c2nc(Cl)c(CC(N)=O)n2Cc2ccccc2)cc1`, `Oc1cccc(Cc2ccc3ccccc3c2O)c1` is lower in melting point: 215 to 216 °C for the first, 100 to 101 °C for the second.

Compared with `Nc1ccc(C=C2NC(=O)NC2=O)cc1`, `O=Cc1ccc(-c2ccccc2-c2nnn[nH]2)cc1` is lower in melting point: 300 °C for the first, 189 to 190 °C for the second.

First: Cn1ccc2cc(Nc3cnccc3N)ccc21
Second: CCc1nn(-c2ccc(F)cc2)c2cc(Br)ccc12
The melting point of the first is higher: 167 to 169 °C for the first, 72 to 73 °C for the second.

First: Cc1ccc2c(c1)C(=O)c1cccn1-2
Second: Cc1cccc(C(=O)NCc2cccc3c2C(=O)N(C2CCC(=O)NC2=O)C3=O)c1 (stereo not given)
The melting point of the first is lower: 85 °C for the first, 218 to 220 °C for the second.

Going from `Cc1c(Cl)cc(C(C)(C)C)c(O)c1-c1nc2cc(C#N)ccc2[nH]1` to `Cc1nn(-c2c(Cl)cc(C(F)(F)F)cc2Cl)nc1C#N`, the melting point falls from 258 °C to 53 °C.

First: COc1ccc(N2CCN(c3ccc(-n4cnn([C@H](C)[C@@]5(c6ccc(F)cc6F)CO5)c4=O)cc3)CC2)cc1
Second: CCn1cc(CN(C(=O)C2CCCc3ccc(O)cc32)c2ccc(C(C)C)cc2)cn1 (stereo not given)
The melting point of the first is higher: 175 to 176 °C for the first, 169 to 170 °C for the second.

Compared with `COc1cc(Oc2ccc(C(=O)N(C3CCCCC3)C3CCCC3)cc2C)cc(OC)c1OC`, `COc1ccc(CCNC(=O)CCCCC(=O)NCCc2ccc(OC)c(OC)c2Cl)c(Cl)c1OC` is lower in melting point: 181 to 182 °C for the first, 159 to 161 °C for the second.

First: COCc1c(CO)ncc2[nH]c3cccc(Cc4ccc(Cl)cc4)c3c12
Second: COC(=O)CCc1ccc(OCCN(C)c2nc3ccccc3o2)cc1
The melting point of the first is higher: 220 to 222 °C for the first, 51 to 52 °C for the second.

Compared with `O=C(CCC(=O)N(CCO)CCO)N(CCO)CCO`, `CC(C)C[C@H](NC(=O)[C@H](Cc1c[nH]cn1)NC(=O)[C@H](Cc1cccc2ccccc12)NC(=O)OCc1ccccc1)[C@@H](O)CC=O` is higher in melting point: 89 to 91 °C for the first, 166 to 168 °C for the second.

First: CC(C)(C)OC(=O)c1ccc(O)c(Br)c1
Second: Cc1ccc(C(=O)c2c(C)cc(C)cc2OCC(O)CNC(C)(C)C)cc1 (stereo not given)
The melting point of the first is lower: 106 to 108 °C for the first, 116 to 118 °C for the second.

First: CCOC(=O)c1ccc(NC(=O)c2ccc3c(c2)SCCC3(C)C)cc1
Second: CC1SC(=O)NN=C1c1ccc2c(c1)C(=NNC(=O)c1ccccn1)C(=O)N2 (stereo not given)
The melting point of the first is lower: 148 to 150 °C for the first, over 300 °C for the second.

Compared with `Cc1ccc2c(c1C)OCC(NNc1ncnc3c1ncn3C1OC(CO)C(O)C1O)C2` (stereo not given), `O=C1NC(=O)C(c2ccc3c(c2)CCCC3)S1` (stereo not given) is lower in melting point: 170 to 172 °C for the first, 157 to 158 °C for the second.

Compared with `CN(C)c1snc(OCC#CI)c1C#N`, `Cc1nn(C)c2[nH]c(=O)c3c(c12)CCCC3` is higher in melting point: 171 to 172 °C for the first, over 300 °C for the second.

Compared with `C=Cc1ccc2c3ccc(C=C)cc3n(CC(CC)CCCC)c2c1` (stereo not given), `ON=C1OC2C=CC1CC2` (stereo not given) is higher in melting point: 59 to 60 °C for the first, 153 to 154 °C for the second.
